# Tested on: Saccharomyces cerevisiae wild type strain BY4743
# Test: AF1 metabolite analysis (GC-MS, LC-MS) of yeast cells treated with antifungal drugs
# Assay type: cell-based
# Details: for # Compounds perturbed: 2x MIC, two hours
compound,measurement,setting,value
OC(Cn1cncn1)(Cn1cncn1)c1ccc(F)cc1F [Fluconazole],# Compounds perturbed,P < 0.05,2
same,# Compounds perturbed,P < 0.1,6
same,"Fold Change, alanine",platform GC,0.3084
same,"Fold Change, asparagine",platform GC,0.3999
same,"Fold Change, aspartic acid",platform GC,0.4337
same,"Fold Change, campesterol",platform GC,0
same,"Fold Change, desmosterol",platform GC,0
same,"Fold Change, disaccaride1",platform GC,0.3883
same,"Fold Change, disaccaride2",platform GC,0.1517
same,"Fold Change, disaccaride3",platform GC,0.5803
same,"Fold Change, ergosterol",platform GC,0.948
same,"Fold Change, fucosterol",platform GC,6.665
same,"Fold Change, glutamine",platform GC,0.5242
same,"Fold Change, glycanopyrose",platform GC,1.202
same,"Fold Change, glycerol",platform GC,0.2187
same,"Fold Change, glycine",platform GC,−0.1037
same,"Fold Change, hexadecanoic acid",platform GC,0.1343
same,"Fold Change, iso citric acid",platform GC,0.3923
same,"Fold Change, isoleucine",platform GC,0.391
same,"Fold Change, lanosterol",platform GC,8.462
same,"Fold Change, leucine",platform GC,0.3387
same,"Fold Change, lysine",platform GC,0.3412
same,"Fold Change, malic acid",platform GC,0.3975
same,"Fold Change, mevalonic acid lactone",platform GC,0.2333
same,"Fold Change, octadecanoic acid",platform GC,0.082
same,"Fold Change, oleic acid",platform GC,−0.3073
same,"Fold Change, ornithine2",platform GC,0.4473
same,"Fold Change, ornithine3",platform GC,0.2647
same,"Fold Change, palmiteliadic acid",platform GC,−0.08867
same,"Fold Change, phenylalanine",platform GC,0.2774
same,"Fold Change, phosphate",platform GC,−0.508
same,"Fold Change, pyrimidine",platform GC,0.2457
same,"Fold Change, 2-ketobutyric acid",platform nLC,−0.9992
same,"Fold Change, 2-ketoglutaric",platform nLC,−0.9995
same,"Fold Change, 3-indolylacetonitri",platform nLC,−0.9998
same,"Fold Change, 4-methylcatechol",platform nLC,0
same,"Fold Change, 4aminobutyrate/dimg",platform nLC,0.1384
same,"Fold Change, 5hydroxyLtryptophan",platform nLC,0
same,"Fold Change, 6-benzylaminopurine",platform nLC,0
same,"Fold Change, DLaminoadipic acid",platform nLC,0.443
same,"Fold Change, NacetylDglucosamine",platform nLC,0
same,"Fold Change, NacetylLglutamate",platform nLC,0.1369
same,"Fold Change, NacetylLornithine",platform nLC,0
same,"Fold Change, abscisic acid",platform nLC,0
same,"Fold Change, aconitic acid",platform nLC,0.6483
same,"Fold Change, adenine",platform nLC,0
same,"Fold Change, adenosine",platform nLC,0
same,"Fold Change, alanine",platform nLC,0.399
same,"Fold Change, allantoic acid",platform nLC,0.2392
same,"Fold Change, allantoin",platform nLC,0.3942
same,"Fold Change, anthranilic acid",platform nLC,0
same,"Fold Change, arginine",platform nLC,0.6484
same,"Fold Change, argininosuccinate",platform nLC,0
same,"Fold Change, asparagine",platform nLC,0.3545
same,"Fold Change, aspartic",platform nLC,0.4993
same,"Fold Change, benzoic acid",platform nLC,0.
same,"Fold Change, biotin",platform nLC,0.3455
same,"Fold Change, caffeic acid",platform nLC,−0.4711
same,"Fold Change, catechol",platform nLC,0
same,"Fold Change, cinnamic acid",platform nLC,0
same,"Fold Change, citricanoic/itaconi.",platform nLC,0
same,"Fold Change, citrulline",platform nLC,0
same,"Fold Change, coumaric acid",platform nLC,0
same,"Fold Change, cytidine",platform nLC,−0.7969
same,"Fold Change, cytosine",platform nLC,0
same,"Fold Change, decanoic acid",platform nLC,0.1846
same,"Fold Change, diaminopimelic acid",platform nLC,0
same,"Fold Change, dihydrofolic acid",platform nLC,0
same,"Fold Change, estrone",platform nLC,0
same,"Fold Change, farnesol",platform nLC,0
same,"Fold Change, folic acid",platform nLC,0
same,"Fold Change, fumaric/3m2oxobutan",platform nLC,0.6009
same,"Fold Change, gallic acid",platform nLC,0.5071
same,"Fold Change, gibberellic",platform nLC,0
same,"Fold Change, glucosamine6PO4",platform nLC,−0.9951
same,"Fold Change, glutamic/acetylseri",platform nLC,0.3842
same,"Fold Change, glutamine/lysine",platform nLC,0.3309
same,"Fold Change, guanine",platform nLC,0
same,"Fold Change, guanosine",platform nLC,−0.993
same,"Fold Change, histidine",platform nLC,0
same,"Fold Change, homogentisic/uric",platform nLC,0
same,"Fold Change, hydrocortisone",platform nLC,0
same,"Fold Change, hypoxanthine",platform nLC,0.7757
same,"Fold Change, indole3pyruvic acid",platform nLC,0
same,"Fold Change, inostol/glucos/sorb",platform nLC,−0.4744
same,"Fold Change, isocitric/citric/qu",platform nLC,1.457
same,"Fold Change, jasmonic acid",platform nLC,0
same,"Fold Change, kinetin",platform nLC,0
same,"Fold Change, lactic acid",platform nLC,−0.0439
same,"Fold Change, lauric acid",platform nLC,0.3906
same,"Fold Change, leucine/isoleucine/",platform nLC,0.3306
same,"Fold Change, luteolin",platform nLC,0
same,"Fold Change, malic acid",platform nLC,0.4366
same,"Fold Change, malonic acid",platform nLC,0
same,"Fold Change, menthol*",platform nLC,0.04758
same,"Fold Change, methionine",platform nLC,0
same,"Fold Change, nicotinic acid",platform nLC,2.443
same,"Fold Change, nopaline",platform nLC,0.3432
same,"Fold Change, oleic acid",platform nLC,−0.01684
same,"Fold Change, ornithine",platform nLC,0.3508
same,"Fold Change, orotic acid",platform nLC,0
same,"Fold Change, palmitic acid",platform nLC,−0.0233
same,"Fold Change, phenylalanine",platform nLC,0.1527
same,"Fold Change, phenylpyruvic acid",platform nLC,0
same,"Fold Change, phosphoenolpyruvate",platform nLC,0
same,"Fold Change, pinitol",platform nLC,0
same,"Fold Change, pipecolic acid",platform nLC,0.2901
same,"Fold Change, porphobilinogen",platform nLC,0
same,"Fold Change, proline",platform nLC,0.4164
same,"Fold Change, pyridoxine",platform nLC,−0.04201
same,"Fold Change, 4-aminobenzoic acid",platform pLC,0
same,"Fold Change, 4-methylcatechol",platform pLC,0
same,"Fold Change, 4ambutyrate/dimglyc",platform pLC,−0.4383
same,"Fold Change, 5hydroxyLtryptophan",platform pLC,0
same,"Fold Change, 6benzylaminopurine",platform pLC,0
same,"Fold Change, DL-aminoadipic acid",platform pLC,0.1155
same,"Fold Change, NacetylDglucosamine",platform pLC,0
same,"Fold Change, NacetylLglutamate",platform pLC,0
same,"Fold Change, NacetylLornithine",platform pLC,0.1584
same,"Fold Change, abscisic acid",platform pLC,0
same,"Fold Change, adenine",platform pLC,−0.09439
same,"Fold Change, adenosine",platform pLC,0
same,"Fold Change, alanine/sarcosine",platform pLC,0.1269
same,"Fold Change, allantoic acid",platform pLC,0
same,"Fold Change, anthranilic acid",platform pLC,0
same,"Fold Change, arginine",platform pLC,0.1179
same,"Fold Change, argininosuccinate",platform pLC,0
same,"Fold Change, asparagine",platform pLC,0.3192
same,"Fold Change, aspartic acid",platform pLC,0.214
same,"Fold Change, biotin",platform pLC,0
same,"Fold Change, caffeine",platform pLC,0
same,"Fold Change, citric acid TME",platform pLC,0
same,"Fold Change, citrulline",platform pLC,0.08252
same,"Fold Change, cytidine",platform pLC,0
same,"Fold Change, cytosine",platform pLC,0
same,"Fold Change, diaminopimelic acid",platform pLC,0
same,"Fold Change, dihydrofolic acid",platform pLC,0
same,"Fold Change, dipicolinic acid",platform pLC,0
same,"Fold Change, folic acid",platform pLC,0
same,"Fold Change, glucosamine",platform pLC,0
same,"Fold Change, glucosamine6PO4",platform pLC,0
same,"Fold Change, glutamate",platform pLC,−0.06179
same,"Fold Change, glutamine/lysine",platform pLC,0.2242
same,"Fold Change, glutathione",platform pLC,−0.05832
same,"Fold Change, guanosine",platform pLC,−0.9981
same,"Fold Change, histidine",platform pLC,0
same,"Fold Change, hydrocortisone",platform pLC,0
same,"Fold Change, hypoxanthine",platform pLC,0.1298
same,"Fold Change, itaconic acid dimes",platform pLC,0
same,"Fold Change, kinetin",platform pLC,0
same,"Fold Change, leucine/isoleucine/",platform pLC,0.1638
same,"Fold Change, luteolin",platform pLC,0
same,"Fold Change, mannitol",platform pLC,0.152
same,"Fold Change, methionine",platform pLC,−0.2906
same,"Fold Change, mevalonic lactone",platform pLC,−0.5175
same,"Fold Change, niacinamide",platform pLC,0
same,"Fold Change, nicotinic acid",platform pLC,−0.7982
same,"Fold Change, nopaline",platform pLC,0
same,"Fold Change, ornithine",platform pLC,0.4775
same,"Fold Change, phenylalanine",platform pLC,−0.1809
same,"Fold Change, phosphoenolpyruvate",platform pLC,0
same,"Fold Change, pipecolic acid",platform pLC,0.2583
same,"Fold Change, progesterone",platform pLC,0
same,"Fold Change, proline",platform pLC,0.2075
same,"Fold Change, pyridoxine",platform pLC,−0.3831
